Experimental data published in patent US8501806B2, “Methods for preventing or reducing colon carcinogenesis” (Nogra Pharma Limited, priority 2008, dated 2013).

How the values were obtained:
[1] = test system: established CT26-derived tumors; assay: Growth of established CT26 xenografts; assay type: in vivo, Balb/c mice; settings: FIG. 7D; subcutaneously 8 mg/kg mouse/day for 2 weeks from day 14
Procedure: CT26 cells (1×10^5 cells in 300 μl PBS 1×) were injected subcutaneously into the flank of Balb/c mice, whose fur was shaved and depilated. Five groups of 10 mice each were implanted with CT26. The first group received daily subcutaneously 300 μl PBS (control), the remaining groups received daily subcutaneously compound 14 at a final dose of 1, 4, 8, or 12 mg/kg/mouse dissolved in 300 μl PBS. Both compound 14 and PBS were administered starting on day 3. Further experimentation was performed to assess whether compound 14 had anti-cancer activity when administered systemically. […] Mice were monitored over the time for weight loss. After 2 weeks, mice were sacrificed, tumors were photographed, then excised and their mass calculated according to the following formula: ½×(short diameter)×(long diameter)×(height). Total extracts were prepared from xenografts and analyzed for cyclin D1 protein content by Western blotting using a commercially available antibody (Santa Cruz Biotechnology). […] After 2 weeks, mice with similar tumor size, determined by caliper measurements, were divided into three groups of 8 mice each. […] Mice were monitored over the time for weight loss. After 2 weeks, mice were sacrificed, tumors were photographed, then excised and their mass calculated as described above. […] Mice were monitored over the time and sacrificed at day 28.

4T1 cells = assay: CFSE cell proliferation assay, 4T1 cells; assay type: cell-based, BALB/c; settings: FIG. 9; graded doses, 24 hours
Procedure: All reagents were from Sigma-Aldrich (Milan, Italy), unless specified. Compound 14 was dissolved as a 25 mM stock solution in culture medium. 4T1 cells, a 6-thioguanine-resistant cell line derived from a BALB/c mammary carcinoma which spontaneously metastasizes to both the lung and liver, were obtained by ATCC and maintained at 37° C. in a humidified atmosphere of 5% CO2 in Dulbecco's modified Eagle's Medium (DMEM) supplemented with 10% inactivated fetal bovine serum (FBS) and 1% penicillin-streptomycin. For cell growth assays, serum-starved 4T1 cells were labeled with carboxyfluorescein diacetate succinimidyl ester (CFSE) (Invitrogen, Milan Italy) at 37° C. for 30 minutes, and then treated with increasing doses of compound 14. After 24 hours, cells were incubated with 5 μg/ml of propidium iodide (PI) for 15 minutes, at 4° C. CFSE and/or PI-positive cells were determined by flow cytometry (Becton Dickinson, Milan, Italy)

HCT-116 cells = assay: Cell cycle distribution (BrdU/PI flow cytometry); assay type: cell-based, human; settings: FIG. 5; increasing concentrations, 24 hours
Procedure: For analysis of cell cycle distribution, serum-starved cells were cultured in medium containing 0.05% BSA and the desiderated concentrations of compound 14 for 24 hours. Cells were pulsed with 10 μM BrdU for 60 minutes, then collected, washed twice with PBS 1×, fixed in 70% cold ethanol, and stored at −20° C. for at least 3 hours. Afterwards, cells were washed twice with PBS 1×, denatured in 2M HCl and stained with anti-BrdU monoclonal antibody (Immunotech, Marseille, France) followed by FITC-conjugated secondary anti-mouse IgG (Molecular Probes/Invitrogen, Milan, Italy). After staining with 100 μg/ml PI, cells were analyzed by flow cytometry. […] HCT-116 cells were treated with or without compound 14 for 24 hours. Values in FIG. 5 are the percentages of cells in the different phases of cell cycle and indicate mean±SD of 4 experiments (untreated vs compound 14-treated cells * P<0.04, ** P<0.001). Right insets show representative dot-plots of the cell cycle distribution.

CDK2 = CDK2 phosphorylation by Western blotting; assay type: cell-based, human; settings: FIG. 6, HCT-116 cells
Excerpt: One of 4 representative Western blots is shown.

CT26-derived tumors = assay: In vivo formation of CT26-derived tumors; set-up: species or system Balb/c mice; settings: for mice with CT26-derived macroscopic tumors: fourteen days after injection (control 10/10)
Procedure: CT26 cells (1×10^5 cells in 300 μl PBS 1×) were injected subcutaneously into the flank of Balb/c mice, whose fur was shaved and depilated. Five groups of 10 mice each were implanted with CT26. The first group received daily subcutaneously 300 μl PBS (control), the remaining groups received daily subcutaneously compound 14 at a final dose of 1, 4, 8, or 12 mg/kg/mouse dissolved in 300 μl PBS. Both compound 14 and PBS were administered starting on day 3. Further experimentation was performed to assess whether compound 14 had anti-cancer activity when administered systemically. To this end, 3 days after the CT26 inoculation, mice were injected with PBS or compound 14 (8 mg/kg/mouse) intraperitoneally. As a control, mice received subcutaneously compound 14 (8 mg/kg/mouse). Mice were monitored over the time for weight loss. After 2 weeks, mice were sacrificed, tumors were photographed, then excised and their mass calculated according to the following formula: ½×(short diameter)×(long diameter)×(height). Total extracts were prepared from xenografts and analyzed for cyclin D1 protein content by Western blotting using a commercially available antibody (Santa Cruz Biotechnology). To examine whether compound 14 was able to reduce the growth of established CRC xenografts, Balb/c mice were implanted with CT26 as described above. After 2 weeks, mice with similar tumor size, determined by caliper measurements, were divided into three groups of 8 mice each. The first group received daily subcutaneously 300 μl PBS (control), the second group received daily subcutaneously 5-ASA (80 mg/kg) dissolved in 300 μl PBS. The last group received daily subcutaneously compound 14 (8 mg/kg) dissolved in 300 μl PBS. Mice were monitored over the time for weight loss. After 2 weeks, mice were sacrificed, tumors were photographed, then excised and their mass calculated as described above. Studies were approved by the Local Ethical Committee.

COc1ccc(N)cc1C(=O)NO [compound 14, 2-methoxy-5-amino-N-hydroxybenzamide]
tumor size of established CT26-derived tumors vs PBS [1]: significantly reduced | in vitro proliferation of 4T1 cells (4T1 cells): dose-dependently inhibited | cells in G0/G1 phase (HCT-116 cells): progressive accumulation | cells with S and G2/M phase DNA content (HCT-116 cells): decrease | CDK2 phosphorylation on threonin 14 and tyrosine 15 (CDK2): enhanced phosphorylation | in-vivo formation of CT26-derived tumors (CT26-derived tumors; FIG. 7A, daily subcutaneously 1, 4, 8, or 12 mg/kg/mouse): dose-dependently reduces | CT26-derived xenografts (CT26-derived tumors; FIG. 7B, intra-peritoneally 8 mg/kg/mouse): inhibits | cyclin D1 protein expression in xenografts (CT26-derived tumors; FIG. 7C, Western blotting, two different doses): reduced | body weight loss (CT26-derived tumors; during the study, treated groups): No body weight loss | tumor mass in comparison to controls (CT26-derived tumors; given subcutaneously or intraperitoneally): significant decrease | mice with CT26-derived macroscopic tumors (CT26-derived tumors; intraperitoneally): 7/10 | histological analysis of liver, kidney, spleen, and colon (CT26-derived tumors; mice receiving compound): no morphological alteration | survival (CT26-derived tumors; mouse, in vivo): all animals survived | mice with CT26-derived macroscopic tumors (CT26-derived tumors; subcutaneously): 5/10
